From PubChem BioAssay AID2060340 (Molecular Pharmacology Branch, DTP, NCI, 2025)

System: 349418-098-R-PDC spheroids, viability, % test/control
Experiment: Anticancer human tumor 349418-098-R-PDC patient-derived lung adenocarcinoma cell line growth inhibition [IpAb]
Conditions: spheroids with HUVEC and MSC; for IC50: curve of first compound; for viability, T/C: stronger effect = lower value
How it was run: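 Spheroids of 60% malignant cells, 25% HUVEC and 15% MSC were exposed to targeted agents combined with ipatasertib or abemaciclib. Doses started at or near clinical Cmax (10 microM when unknown) and fell in half-log steps.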

[1] = second compound 0.1 µM, first compound 0.0316 µM
[2] = second compound 0.1 µM, first compound 0.1 µM
[3] = second compound 0.1 µM, first compound 0.316 µM
[4] = second compound 0.1 µM, first compound 1 µM
[5] = second compound 0.316 µM, first compound 0.0316 µM
[6] = second compound 0.316 µM, first compound 0.1 µM
[7] = second compound 0.316 µM, first compound 0.316 µM
[8] = second compound 0.316 µM, first compound 1 µM
[9] = second compound 1 µM, first compound 0.0316 µM
[10] = second compound 1 µM, first compound 0.1 µM
[11] = second compound 1 µM, first compound 0.316 µM
[12] = second compound 1 µM, first compound 1 µM
[13] = second compound 3.16 µM, first compound 0.0316 µM
[14] = second compound 3.16 µM, first compound 0.1 µM
[15] = second compound 3.16 µM, first compound 0.316 µM
[16] = second compound 3.16 µM, first compound 1 µM
[17] = second compound 10 µM, first compound 0.0316 µM
[18] = second compound 10 µM, first compound 0.1 µM
[19] = second compound 10 µM, first compound 0.316 µM
[20] = second compound 10 µM, first compound 1 µM
[21] = second compound 0.1 µM, first compound 3.16 µM
[22] = second compound 0.1 µM, first compound 10 µM
[23] = second compound 0.316 µM, first compound 3.16 µM
[24] = second compound 0.316 µM, first compound 10 µM
[25] = second compound 1 µM, first compound 3.16 µM
[26] = second compound 1 µM, first compound 10 µM
[27] = second compound 3.16 µM, first compound 3.16 µM
[28] = second compound 3.16 µM, first compound 10 µM
[29] = second compound 10 µM, first compound 3.16 µM
[30] = second compound 10 µM, first compound 10 µM

CC(=O)c1c(C)c2cnc(Nc3ccc(N4CCNCC4)cn3)nc2n(C2CCCC2)c1=O + CC(C)NCC(C(=O)N1CCN(c2ncnc3c2C(C)CC3O)CC1)c1ccc(Cl)cc1
IC50 (second compound 0.1 µM): 8.74 nM
IC50 (second compound 0.316 µM): < 0.949 nM
IC50 (second compound 1 µM): < 0.949 nM
IC50 (second compound 3.16 µM): < 0.949 nM
IC50 (second compound 10 µM): < 0.949 nM
viability, T/C (second compound 0.1 µM, first compound 0.000949 µM): 76.3%
viability, T/C (second compound 0.1 µM, first compound 0.003 µM): 74.8%
viability, T/C (second compound 0.1 µM, first compound 0.00949 µM): 44%
viability, T/C (second compound 0.1 µM, first compound 0.03 µM): 29.3%
viability, T/C (second compound 0.1 µM, first compound 0.0949 µM): 14.4%
viability, T/C (second compound 0.1 µM, first compound 0.3 µM): 12.1%
viability, T/C (second compound 0.316 µM, first compound 0.000949 µM): 40.5%
viability, T/C (second compound 0.316 µM, first compound 0.003 µM): 43.2%
viability, T/C (second compound 0.316 µM, first compound 0.00949 µM): 23.8%
viability, T/C (second compound 0.316 µM, first compound 0.03 µM): 15.5%
viability, T/C (second compound 0.316 µM, first compound 0.0949 µM): 8.84%
viability, T/C (second compound 0.316 µM, first compound 0.3 µM): 8.96%
viability, T/C (second compound 1 µM, first compound 0.000949 µM): 19.5%
viability, T/C (second compound 1 µM, first compound 0.003 µM): 13.5%
viability, T/C (second compound 1 µM, first compound 0.00949 µM): 9.63%
viability, T/C (second compound 1 µM, first compound 0.03 µM): 7.98%
viability, T/C (second compound 1 µM, first compound 0.0949 µM): 7.69%
viability, T/C (second compound 1 µM, first compound 0.3 µM): 7.53%
viability, T/C (second compound 3.16 µM, first compound 0.000949 µM): 11.4%
viability, T/C (second compound 3.16 µM, first compound 0.003 µM): 9.48%
viability, T/C (second compound 3.16 µM, first compound 0.00949 µM): 8.85%
viability, T/C (second compound 3.16 µM, first compound 0.03 µM): 6.09%
viability, T/C (second compound 3.16 µM, first compound 0.0949 µM): 6.21%
viability, T/C (second compound 3.16 µM, first compound 0.3 µM): 7.07%
viability, T/C (second compound 10 µM, first compound 0.000949 µM): 7.89%
viability, T/C (second compound 10 µM, first compound 0.003 µM): 6.96%
viability, T/C (second compound 10 µM, first compound 0.00949 µM): 5.33%
viability, T/C (second compound 10 µM, first compound 0.03 µM): 5.56%
viability, T/C (second compound 10 µM, first compound 0.0949 µM): 5.75%
viability, T/C (second compound 10 µM, first compound 0.3 µM): 5.61%

COc1c(OCCCN2CCOCC2)ccc2c3n(c(=NC(=O)c4cnc(N)nc4)nc12)CCN3 + CC(C)NCC(C(=O)N1CCN(c2ncnc3c2C(C)CC3O)CC1)c1ccc(Cl)cc1
IC50 (second compound 0.1 µM): 3.97 nM
IC50 (second compound 0.316 µM): < 3.16 nM
IC50 (second compound 1 µM): < 3.16 nM
IC50 (second compound 3.16 µM): < 3.16 nM
IC50 (second compound 10 µM): < 3.16 nM
viability, T/C (second compound 0.1 µM, first compound 0.00316 µM): 55.1%
viability, T/C (second compound 0.1 µM, first compound 0.01 µM): 29.2%
viability, T/C [1]: 9.62%
viability, T/C [2]: 5.79%
viability, T/C [3]: 5.45%
viability, T/C [4]: 5.99%
viability, T/C (second compound 0.316 µM, first compound 0.00316 µM): 35%
viability, T/C (second compound 0.316 µM, first compound 0.01 µM): 21.2%
viability, T/C [5]: 8.11%
viability, T/C [6]: 6.04%
viability, T/C [7]: 5.28%
viability, T/C [8]: 5.13%
viability, T/C (second compound 1 µM, first compound 0.00316 µM): 16.6%
viability, T/C (second compound 1 µM, first compound 0.01 µM): 9.17%
viability, T/C [9]: 7.4%
viability, T/C [10]: 5.13%
viability, T/C [11]: 5.24%
viability, T/C [12]: 4.6%
viability, T/C (second compound 3.16 µM, first compound 0.00316 µM): 9.24%
viability, T/C (second compound 3.16 µM, first compound 0.01 µM): 8.35%
viability, T/C [13]: 6.17%
viability, T/C [14]: 4.91%
viability, T/C [15]: 4.85%
viability, T/C [16]: 4.78%
viability, T/C (second compound 10 µM, first compound 0.00316 µM): 6.46%
viability, T/C (second compound 10 µM, first compound 0.01 µM): 6.12%
viability, T/C [17]: 5.32%
viability, T/C [18]: 4.15%
viability, T/C [19]: 4.39%
viability, T/C [20]: 4.49%

Cc1nc(NC(=O)N2CCCC2C(N)=O)sc1-c1ccnc(C(C)(C)C(F)(F)F)c1 (stereo not given) + CC(C)NCC(C(=O)N1CCN(c2ncnc3c2C(C)CC3O)CC1)c1ccc(Cl)cc1
IC50 (second compound 0.1 µM): 117 nM
IC50 (second compound 0.316 µM): < 31.6 nM
IC50 (second compound 1 µM): < 31.6 nM
IC50 (second compound 3.16 µM): < 31.6 nM
IC50 (second compound 10 µM): < 31.6 nM
viability, T/C [1]: 75.5%
viability, T/C [2]: 52.5%
viability, T/C [3]: 31.8%
viability, T/C [4]: 16.8%
viability, T/C [21]: 14.2%
viability, T/C [22]: 12.7%
viability, T/C [5]: 40.3%
viability, T/C [6]: 33.8%
viability, T/C [7]: 24.9%
viability, T/C [8]: 12.6%
viability, T/C [23]: 13.7%
viability, T/C [24]: 9.57%
viability, T/C [9]: 21.9%
viability, T/C [10]: 16.2%
viability, T/C [11]: 13.6%
viability, T/C [12]: 11%
viability, T/C [25]: 10.2%
viability, T/C [26]: 8.68%
viability, T/C [13]: 11.4%
viability, T/C [14]: 9.53%
viability, T/C [15]: 9.54%
viability, T/C [16]: 7.39%
viability, T/C [27]: 7.95%
viability, T/C [28]: 7.62%
viability, T/C [17]: 8.29%
viability, T/C [18]: 7.93%
viability, T/C [19]: 7.48%
viability, T/C [20]: 6.51%
viability, T/C [29]: 6.55%
viability, T/C [30]: 5.85%

Cn1nccc1Nc1nccc(-c2ccn(C(CO)c3ccc(Cl)c(F)c3)c(=O)c2)n1 (stereo not given) + CC(C)NCC(C(=O)N1CCN(c2ncnc3c2C(C)CC3O)CC1)c1ccc(Cl)cc1
IC50 (second compound 0.1 µM): < 31.6 nM
IC50 (second compound 0.316 µM): < 31.6 nM
IC50 (second compound 1 µM): < 31.6 nM
IC50 (second compound 3.16 µM): < 31.6 nM
IC50 (second compound 10 µM): < 31.6 nM
viability, T/C [1]: 43.3%
viability, T/C [2]: 35.9%
viability, T/C [3]: 33%
viability, T/C [4]: 29.7%
viability, T/C [21]: 21.5%
viability, T/C [22]: 17.9%
viability, T/C [5]: 23.7%
viability, T/C [6]: 20.2%
viability, T/C [7]: 17.9%
viability, T/C [8]: 16%
viability, T/C [23]: 16%
viability, T/C [24]: 14.6%
viability, T/C [9]: 10.3%
viability, T/C [10]: 10.8%
viability, T/C [11]: 8.91%
viability, T/C [12]: 10.4%
viability, T/C [25]: 11.8%
viability, T/C [26]: 11%
viability, T/C [13]: 7.69%
viability, T/C [14]: 7.5%
viability, T/C [15]: 6.61%
viability, T/C [16]: 7%
viability, T/C [27]: 7.85%
viability, T/C [28]: 8.65%
viability, T/C [17]: 5.18%
viability, T/C [18]: 5.1%
viability, T/C [19]: 4.68%
viability, T/C [20]: 4.43%
viability, T/C [29]: 5.74%
viability, T/C [30]: 7%
